Measurements from ChEMBL document CHEMBL1201862, “PubChem BioAssay data set” (2004).
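Five compound concentrations were applied to cells in 96-well plates for 48 hours; endpoints were derived by simple linear interpolation of the resulting dose-response curve. Here, GI50 denotes the concentration required for 50% inhibition of growth.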 The source made the active and inactive calls. No stated cut-off is given here; in the data, active = GI50 up to about 1.1 µM and inactive = higher. Where a SMILES comes first, the peptide text is derived from it. [ ]: non-standard residue; d: D form. The star is where a group is joined. mTyr = N[CH](Cc1cccc(O)c1)C(=O)O; Cbz = O=C(OCc1ccccc1)*; OBn = c1ccc(CO*)cc1

Legend:
Experiment in all cases: DTP human tumour cell line panel, 48 h
ACHN = system: ACHN
IGROV-1 = system: IGROV-1
CAKI-1 = system: CAKI-1
SF-268 = system: SF-268
SK-MEL-2 = system: SK-MEL-2
K562 = system: K562
TK-10 = system: TK-10
NCI-H460 = system: NCI-H460
COLO 205 = system: COLO 205
MDA-MB-231 = system: MDA-MB-231
786-0 = system: 786-0
MOLT-4 = system: MOLT-4
DU-145 = system: DU-145
T47D = system: T47D
HOP-92 = system: HOP-92
Malme-3M = system: Malme-3M
MCF7 = system: MCF7
OVCAR-8 = system: OVCAR-8
Hs-578T = system: Hs-578T
MDA-MB-435 = system: MDA-MB-435

| Compound | GI50 (ACHN) | GI50 (IGROV-1) | GI50 (CAKI-1) | GI50 (SF-268) | GI50 (SK-MEL-2) | GI50 (K562) | GI50 (TK-10) | GI50 (NCI-H460) | GI50 (COLO 205) | GI50 (MDA-MB-231) | GI50 (786-0) | GI50 (MOLT-4) | GI50 (DU-145) | GI50 (T47D) | GI50 (HOP-92) | GI50 (Malme-3M) | GI50 (MCF7) | GI50 (OVCAR-8) | GI50 (Hs-578T) | GI50 (MDA-MB-435) |
| --- | --- | --- | --- | --- | --- | --- | --- | --- | --- | --- | --- | --- | --- | --- | --- | --- | --- | --- | --- | --- |
| Cc1ccccc1Nc1nc2c(s1)C(=O)c1ccccc1C2=O | 4.95 µM (inactive) | 9.55 µM (inactive) | 16.5 µM (inactive) | 4.33 µM (inactive) | 16.7 µM (inactive) | 3.07 µM (inactive) | 22.7 µM (inactive) | 8.67 µM (inactive) | 16.8 µM (inactive) | 3.41 µM (inactive) | 2.95 µM (inactive) | 2.43 µM (inactive) | 6.67 µM (inactive) | 4.53 µM (inactive) | 11.9 µM (inactive) | 15 µM (inactive) | 2 µM (inactive) | 2.86 µM (inactive) | – | – |
| CC(=O)O[C@H]1CC2C(C3CCC(C(C)CCC(N)=O)[C@]31C)[C@H](OC(C)=O)C[C@@H]1CC3(CC[C@]21C)OOC1(CC[C@]2(C)C4C[C@H](OC(C)=O)[C@]5(C)C(C(C)CCC(N)=O)CCC5C4[C@H](OC(C)=O)C[C@@H]2C1)OO3 (some centres undefined) | 1.62 µM (inactive) | 1.69 µM (inactive) | 1.88 µM (inactive) | 1.75 µM (inactive) | 1.84 µM (inactive) | 1.76 µM (inactive) | 1.8 µM (inactive) | 1.69 µM (inactive) | 1.11 µM (active) | 1.51 µM (inactive) | 1.55 µM (inactive) | 1.11 µM (active) | 1.73 µM (inactive) | – | – | 2.61 µM (inactive) | 1.58 µM (inactive) | 1.55 µM (inactive) | 2.17 µM (inactive) | 1.4 µM (inactive) |
| COC(=O)C(Cc1cccc(O)c1)NC(=O)C(CC(=O)OCc1ccccc1)NC(=O)OCc1ccccc1 (centres undefined) (Cbz-Asp(OBn)-[mTyr]-OMe; configuration not given here) | 63.5 µM (inactive) | 30.6 µM (inactive) | – | – | > 100 µM (inactive) | > 100 µM (inactive) | > 100 µM (inactive) | 15.4 µM (inactive) | > 100 µM (inactive) | > 100 µM (inactive) | > 100 µM (inactive) | 32.1 µM (inactive) | – | 15.9 µM (inactive) | 29.1 µM (inactive) | > 100 µM (inactive) | > 100 µM (inactive) | > 100 µM (inactive) | > 100 µM (inactive) | – |
| CCn1c2ccccc2c2ccc(C3C(C(=O)OC)=C(C)NC(C)=C3C(=O)OC)cc21 | 38.8 µM (inactive) | > 100 µM (inactive) | 31 µM (inactive) | 73.8 µM (inactive) | – | 41.7 µM (inactive) | 59.2 µM (inactive) | 35.5 µM (inactive) | 48.5 µM (inactive) | 15.9 µM (inactive) | 38.2 µM (inactive) | 28.2 µM (inactive) | > 100 µM (inactive) | 63.8 µM (inactive) | – | 20 µM (inactive) | 27 µM (inactive) | 49.3 µM (inactive) | – | 45.6 µM (inactive) |
| C/C(=N\N=C(/S)SCc1ccccc1)c1ccccn1 | < 0.01 µM (active) | < 0.01 µM (active) | < 0.0504 µM (active) | 0.184 µM (active) | 1.27 µM (inactive) | < 0.01 µM (active) | 0.339 µM (active) | 0.26 µM (active) | < 0.01 µM (active) | < 0.01 µM (active) | < 0.01 µM (active) | < 0.01 µM (active) | 1.54 µM (inactive) | – | < 0.0105 µM (active) | 0.665 µM (active) | < 0.01 µM (active) | < 0.01 µM (active) | 2.62 µM (inactive) | 1.02 µM (active) |
| CN1CCN(c2nc3cc(F)ccc3n3cccc23)CC1 | 31.6 µM (inactive) | 30.8 µM (inactive) | 22 µM (inactive) | 48.6 µM (inactive) | – | 20.4 µM (inactive) | 39.6 µM (inactive) | 18.5 µM (inactive) | 26.9 µM (inactive) | 44.2 µM (inactive) | 40.4 µM (inactive) | 23.1 µM (inactive) | – | 29 µM (inactive) | 30.2 µM (inactive) | 25.3 µM (inactive) | 15.1 µM (inactive) | 51.8 µM (inactive) | 31.4 µM (inactive) | 23.4 µM (inactive) |
| O=C(NCCN1CCOCC1)c1cn2c(ccc3sc4ccccc4c(=O)c32)n1 | 5.36 µM (inactive) | 22.9 µM (inactive) | > 100 µM (inactive) | 12.3 µM (inactive) | – | 9.86 µM (inactive) | > 100 µM (inactive) | 4.02 µM (inactive) | 7.24 µM (inactive) | 5.35 µM (inactive) | 13.6 µM (inactive) | 3.3 µM (inactive) | > 100 µM (inactive) | – | 12.8 µM (inactive) | 22.7 µM (inactive) | 7.08 µM (inactive) | > 100 µM (inactive) | 12.2 µM (inactive) | 16.4 µM (inactive) |
| Nc1cc(OCC2CCCCC2)nc(N)n1 | > 100 µM (inactive) | 67.9 µM (inactive) | > 100 µM (inactive) | > 100 µM (inactive) | > 100 µM (inactive) | > 100 µM (inactive) | > 100 µM (inactive) | > 100 µM (inactive) | 87.3 µM (inactive) | > 100 µM (inactive) | > 100 µM (inactive) | 82.2 µM (inactive) | > 100 µM (inactive) | – | > 100 µM (inactive) | > 100 µM (inactive) | – | > 100 µM (inactive) | > 100 µM (inactive) | > 100 µM (inactive) |
| COc1cc(/C=C2\C(=O)N(c3cc(Cl)ccc3Cl)C(c3ccccc3)S2(=O)=O)cc(OC)c1OC (centres undefined) | > 100 µM (inactive) | 28.3 µM (inactive) | > 100 µM (inactive) | – | > 100 µM (inactive) | 31 µM (inactive) | > 100 µM (inactive) | > 100 µM (inactive) | > 100 µM (inactive) | > 100 µM (inactive) | > 100 µM (inactive) | 25.1 µM (inactive) | > 100 µM (inactive) | 26.1 µM (inactive) | 45.1 µM (inactive) | 42.9 µM (inactive) | 27 µM (inactive) | > 100 µM (inactive) | – | 27.7 µM (inactive) |
| Fc1cccc(C2SCc3nc4ccccc4n32)c1F (centres undefined) | 48.5 µM (inactive) | 73.8 µM (inactive) | 59.4 µM (inactive) | 98.4 µM (inactive) | 7.52 µM (inactive) | 33 µM (inactive) | 42 µM (inactive) | 51.5 µM (inactive) | 80.5 µM (inactive) | – | 92.9 µM (inactive) | 21.1 µM (inactive) | – | – | 23 µM (inactive) | 38 µM (inactive) | – | 69.3 µM (inactive) | – | – |
| COC(=O)CNC(=O)Nc1cc(N2C(=O)ON3C2C(C)(C)N(O)C3(C)C)ccc1C (centres undefined) | > 100 µM (inactive) | > 100 µM (inactive) | > 100 µM (inactive) | > 100 µM (inactive) | 59.4 µM (inactive) | > 100 µM (inactive) | > 100 µM (inactive) | > 100 µM (inactive) | > 100 µM (inactive) | > 100 µM (inactive) | > 100 µM (inactive) | > 100 µM (inactive) | – | > 100 µM (inactive) | – | > 100 µM (inactive) | > 100 µM (inactive) | > 100 µM (inactive) | > 100 µM (inactive) | > 100 µM (inactive) |
| O=Cc1ccc2[nH]c(=O)oc2c1 | > 100 µM (inactive) | > 100 µM (inactive) | > 100 µM (inactive) | > 100 µM (inactive) | > 100 µM (inactive) | > 100 µM (inactive) | > 100 µM (inactive) | > 100 µM (inactive) | > 100 µM (inactive) | > 100 µM (inactive) | > 100 µM (inactive) | 60.4 µM (inactive) | > 100 µM (inactive) | – | – | > 100 µM (inactive) | > 100 µM (inactive) | > 100 µM (inactive) | > 100 µM (inactive) | > 100 µM (inactive) |
| Cc1cccc(C(C)C)c1NC(=O)CC1C(=O)Nc2ccccc2S1(=O)=O (centres undefined) | 22.9 µM (inactive) | 22.5 µM (inactive) | 6.58 µM (inactive) | 12.8 µM (inactive) | > 38.3 µM (inactive) | 2.22 µM (inactive) | 29 µM (inactive) | 12.8 µM (inactive) | 25.2 µM (inactive) | – | 13.9 µM (inactive) | 0.408 µM (active) | – | – | 11.8 µM (inactive) | 16.3 µM (inactive) | – | 14.4 µM (inactive) | – | – |
| O=C(CNc1ccc(Cl)cc1Cl)NC1C=Cc2ccc(S(=O)(=O)Nc3ccc(Cl)cc3Cl)cc2C1=O (centres undefined) | > 100 µM (inactive) | > 100 µM (inactive) | > 100 µM (inactive) | > 100 µM (inactive) | > 100 µM (inactive) | > 100 µM (inactive) | > 100 µM (inactive) | > 100 µM (inactive) | > 100 µM (inactive) | > 100 µM (inactive) | > 100 µM (inactive) | > 100 µM (inactive) | > 100 µM (inactive) | – | > 100 µM (inactive) | > 100 µM (inactive) | > 100 µM (inactive) | > 100 µM (inactive) | > 100 µM (inactive) | > 100 µM (inactive) |
| CC1(C)CCC[C@]2(C)[C@@H]1CC[C@@]13O[C@@H]1C1=C(CO)C(=O)OC1=C[C@@H]23 | 29.2 µM (inactive) | 5.68 µM (inactive) | 18.8 µM (inactive) | 15.2 µM (inactive) | 22.8 µM (inactive) | 21.4 µM (inactive) | 25.2 µM (inactive) | 18.2 µM (inactive) | 16.5 µM (inactive) | 31.1 µM (inactive) | 14.3 µM (inactive) | 17.3 µM (inactive) | 18.4 µM (inactive) | – | 15.4 µM (inactive) | 1.1 µM (active) | 26.4 µM (inactive) | – | – | 20.5 µM (inactive) |
| COC(=O)CC(=O)C[P+](c1ccccc1)(c1ccccc1)c1ccccc1 | > 218 µM (inactive) | > 218 µM (inactive) | > 218 µM (inactive) | > 218 µM (inactive) | > 218 µM (inactive) | 68.5 µM (inactive) | > 218 µM (inactive) | 148 µM (inactive) | 168 µM (inactive) | – | > 218 µM (inactive) | 74 µM (inactive) | – | – | 102 µM (inactive) | 192 µM (inactive) | – | 150 µM (inactive) | – | – |
